# Test results as given in ChEMBL document CHEMBL1158821, “Anti-inflammatory sesquiterpene-quinones from the New Zealand sponge Dysidea cf. cristagalli” (J Nat Prod, 2005).
# Columns and labels:
# [1] = Toxicity against human HL60 cells assessed as inhibition of cell proliferation; format: cell-based; details: HL-60 cells
# [2] = Antiinflammatory activity in PMA-induced human neutrophils assessed as inhibition of superoxide production; format: functional, cell-based; details: Neutrophil
IC50 [2],SMILES,IC50 [1]
11 µM,CC1=CC[C@H]2C(C)(C)CCC[C@]2(C)[C@H]1CC1=C(O)C(=O)C=CC1=O,0.34 µM
3 µM,CC(=O)Oc1ccc(O)c(C[C@H]2C(C)=CC[C@H]3C(C)(C)CCC[C@]23C)c1O,0.37 µM
